Assay results published in the supplement of paper PMC11451515.

Test system: P12-Ichikawa
Assay: cell viability relative to DMSO control; higher = less cytotoxic
Conditions: 48 h
How it was run: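 Three leukemia lines were tested: NOMO1 and SEM at 500 cells/well and P12-Ichikawa at 1000 cells/well. Each was adapted for at least four passages in each medium and seeded in 5 μl in 1536-well plates, and library compounds in DMSO were pin-dosed from 47 μM to 0.79 nM in 11 threefold steps. After 48 h at 37°C, CellTiter-Glo One luminescence was read. Viability is a percentage relative to DMSO wells on each plate, with cell-free wells as background.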

[1] = HPLM + 10% dialyzed FBS, 0.000781 µM
[2] = HPLM + 10% dialyzed FBS, 0.00234 µM
[3] = HPLM + 10% dialyzed FBS, 0.00702 µM
[4] = HPLM + 10% dialyzed FBS, 0.0211 µM
[5] = HPLM + 10% dialyzed FBS, 0.0632 µM
[6] = HPLM + 10% dialyzed FBS, 0.19 µM
[7] = HPLM + 10% dialyzed FBS, 0.569 µM
[8] = HPLM + 10% dialyzed FBS, 1.71 µM
[9] = HPLM + 10% dialyzed FBS, 5.12 µM
[10] = HPLM + 10% dialyzed FBS, 15.4 µM
[11] = HPLM + 10% dialyzed FBS, 46.1 µM
[12] = RPMI 5 mM glucose + 10% FBS, 0.000781 µM
[13] = RPMI 5 mM glucose + 10% FBS, 0.00234 µM
[14] = RPMI 5 mM glucose + 10% FBS, 0.00702 µM
[15] = RPMI 5 mM glucose + 10% FBS, 0.0211 µM
[16] = RPMI 5 mM glucose + 10% FBS, 0.0632 µM
[17] = RPMI 5 mM glucose + 10% FBS, 0.19 µM
[18] = RPMI 5 mM glucose + 10% FBS, 0.569 µM
[19] = RPMI 5 mM glucose + 10% FBS, 1.71 µM
[20] = RPMI 5 mM glucose + 10% FBS, 5.12 µM
[21] = RPMI 5 mM glucose + 10% FBS, 15.4 µM
[22] = RPMI 5 mM glucose + 10% FBS, 46.1 µM
[23] = RPMI 5 mM glucose + 10% dialyzed FBS, 0.000781 µM
[24] = RPMI 5 mM glucose + 10% dialyzed FBS, 0.00234 µM
[25] = RPMI 5 mM glucose + 10% dialyzed FBS, 0.00702 µM
[26] = RPMI 5 mM glucose + 10% dialyzed FBS, 0.0211 µM
[27] = RPMI 5 mM glucose + 10% dialyzed FBS, 0.0632 µM
[28] = RPMI 5 mM glucose + 10% dialyzed FBS, 0.19 µM
[29] = RPMI 5 mM glucose + 10% dialyzed FBS, 0.569 µM
[30] = RPMI 5 mM glucose + 10% dialyzed FBS, 1.71 µM
[31] = RPMI 5 mM glucose + 10% dialyzed FBS, 5.12 µM
[32] = RPMI 5 mM glucose + 10% dialyzed FBS, 15.4 µM
[33] = RPMI 5 mM glucose + 10% dialyzed FBS, 46.1 µM

Row | Structure (SMILES) | cell viability [1] | cell viability [2] | cell viability [3] | cell viability [4] | cell viability [5] | cell viability [6] | cell viability [7] | cell viability [8] | cell viability [9] | cell viability [10] | cell viability [11] | cell viability [12] | cell viability [13] | cell viability [14] | cell viability [15] | cell viability [16] | cell viability [17] | cell viability [18] | cell viability [19] | cell viability [20] | cell viability [21] | cell viability [22] | cell viability [23] | cell viability [24] | cell viability [25] | cell viability [26] | cell viability [27] | cell viability [28] | cell viability [29] | cell viability [30] | cell viability [31] | cell viability [32] | cell viability [33]
1 | Cn1cc(-c2ccc3nnc(C(F)(F)c4ccc5ncccc5c4)n3n2)cn1 | 116% | 117% | 117% | 116% | 113% | 115% | 109% | 108% | 101% | 95.8% | 82.9% | 114% | 117% | 117% | 124% | 109% | 113% | 113% | 106% | 107% | 101% | 81.7% | 119% | 112% | 120% | 118% | 113% | 119% | 118% | 112% | 101% | 102% | 85.6%
2 | CCn1c(-c2nonc2N)nc2cncc(CNC3CCNCC3)c21 | 122% | 123% | 123% | 123% | 130% | 129% | 117% | 104% | 88.6% | 10.1% | 13.7% |  |  |  |  |  |  |  |  |  |  |  |  |  |  |  |  |  |  |  |  |  | 
3 | COc1cc(O)c2c(c1)C1OC1C[C@H](O)[C@H](O)C(=O)/C=C\C[C@H](C)OC2=O (stereo partly specified) | 99.6% | 112% | 114% | 110% | 110% | 120% | 112% | 112% | 112% | 81.5% | 11.3% | 113% | 112% | 118% | 110% | 115% | 114% | 116% | 125% | 117% | 80.5% | 13.5% | 96.5% | 117% | 116% | 118% | 114% | 135% | 124% | 123% | 132% | 85.1% | 14.3%
4 | C[C@H]1C[C@H]2[C@@H]3CCC4=CC(=O)C=C[C@]4(C)[C@@]3(F)[C@@H](O)C[C@]2(C)[C@@]1(O)C(=O)CO | 114% | 119% | 118% | 109% | 98.1% | 78.3% | 73.9% | 71.9% | 71% | 65.5% | 65.8% | 121% | 126% | 116% | 108% | 99.8% | 73.1% | 65.1% | 60.1% | 51.7% | 55.6% | 43.5% | 110% | 119% | 116% | 101% | 81.1% | 59.9% | 56% | 48.2% | 46% | 41.5% | 42.5%
5 | COc1cc2c(Oc3ccc(NC(=O)C4(C(=O)Nc5ccc(F)cc5)CC4)cc3F)ccnc2cc1OCCCN1CCOCC1 | 86.3% | 90.5% | 87% | 88.8% | 81.2% | 81.8% | 78.5% | 38.7% | 8.94% | 8.26% | 5.1% | 83.8% | 90.3% | 84.8% | 83.5% | 85.7% | 74.3% | 77.1% | 59.5% | 10% | 11% | 4.54% | 86.2% | 82.9% | 86.6% | 89.3% | 85.4% | 80% | 88.2% | 44.6% | 14.7% | 12.4% | 4.34%
6 | CCCCCCCc1ccc(CCc2cccc(O)c2C(=O)O)cc1 | 122% | 124% | 126% | 124% | 119% | 111% | 123% | 110% | 108% | 104% | 90.2% | 125% | 121% | 127% | 129% | 128% | 119% | 107% | 111% | 104% | 97.7% | 91.3% |  |  |  |  |  |  |  |  |  |  | 
7 | CN(C/C=C/C#CC(C)(C)C)Cc1cccc2ccccc12 | 96.2% | 103% | 101% | 104% | 105% | 103% | 106% | 90.6% | 103% | 105% | 107% | 90.6% | 93.1% | 100% | 93.8% | 100% | 105% | 101% | 101% | 98.9% | 102% | 94.5% | 92.3% | 94.4% | 89.7% | 92.3% | 99.5% | 90.8% | 90.9% | 96.5% | 91.8% | 91.3% | 93.8%
8 | OC[C@H](Cc1ccccc1)Nc1nc(Oc2ccc3c(c2)CCC3)nc2c1ncn2Cc1ccc(-c2ccccc2)cc1 | 93% | 94.1% | 98.7% | 102% | 96.4% | 99.1% | 105% | 94.3% | 95.4% | 82.7% | 79.2% | 90.8% | 93.3% | 89% | 90.5% | 94.7% | 89.5% | 91% | 97.3% | 90.1% | 86% | 75.1% | 79.6% | 88.4% | 90.9% | 99% | 99.8% | 89.3% | 90.8% | 87.7% | 88.9% | 72.4% | 68.4%
